The results in this text go back to patent publication US9073830B2 (Hyundai Pharm Co., Ltd., priority 2011, dated 2015).

For experiment [1], the target named is T1, human 11β-HSD1 (Homo sapiens, UniProt P28845).
T1 construct: 100 ug/ml human/mouse liver microsomes; from tissue; host or cells: human liver microsomes
The experiment in a line: Enzyme activity analysis on human 11β-HSD1 (HTRF cortisol, liver microsomes). Format: biochemical. As to conditions: first value of cell. In short, it runs like this: (§1)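 Cortisol generated by mouse or human liver microsome 11β-HSD1 during 2 h at 37° C., measured by HTRF competition (cryptate anti-cortisol antibody, d2-cortisol, 2 h room temperature) against a cortisol standard curve. IC50 from percent inhibition versus no-compound control.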

For experiment [2], the target named is T2, mouse 11β-HSD1 (Mus musculus, UniProt P50172).
T2 construct: 100 ug/ml human/mouse liver microsomes; from tissue; host or cells: mouse liver microsomes
The experiment in a line: Enzyme activity analysis on mouse 11β-HSD1 (HTRF cortisol, liver microsomes). Format: biochemical. As to conditions: second value of cell. In short, it runs like this: as §1
On the technique in general: Time-resolved FRET reads energy transfer from a long-lived donor to a nearby acceptor.

T1 sequence (P28845 whole entry): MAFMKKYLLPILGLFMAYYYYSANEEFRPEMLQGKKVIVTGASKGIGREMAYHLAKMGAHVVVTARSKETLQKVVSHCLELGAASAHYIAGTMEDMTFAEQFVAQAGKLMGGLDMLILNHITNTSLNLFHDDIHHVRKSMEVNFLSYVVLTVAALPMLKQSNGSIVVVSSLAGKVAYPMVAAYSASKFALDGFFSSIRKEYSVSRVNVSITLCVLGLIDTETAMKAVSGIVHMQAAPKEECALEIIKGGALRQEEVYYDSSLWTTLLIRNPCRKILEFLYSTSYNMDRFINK
T2 sequence (P50172 whole entry): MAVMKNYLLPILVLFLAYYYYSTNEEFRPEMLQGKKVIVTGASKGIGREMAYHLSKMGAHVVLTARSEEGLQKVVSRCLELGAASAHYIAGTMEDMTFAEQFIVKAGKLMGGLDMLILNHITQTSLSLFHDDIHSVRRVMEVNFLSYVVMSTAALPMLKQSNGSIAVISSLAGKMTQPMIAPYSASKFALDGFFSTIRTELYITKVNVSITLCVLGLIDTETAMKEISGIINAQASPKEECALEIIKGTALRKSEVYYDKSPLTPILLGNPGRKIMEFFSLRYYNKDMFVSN

For orientation: IC50 means the point on the concentration scale where inhibition reaches its midpoint. Low readings indicate greater potency in that assay, high ones weaker potency in that assay. On to `NC(=O)C12CC3CC(C1)C(NC(=O)C1(NS(=O)(=O)c4ccccc4)CCCC1)C(C3)C2` (stereo not shown) [compound 171, N-4-(1-(phenylsulfonamido)cyclopentanecarboxyamido)adamantane-1-carboxyamide], for which the IC50 was determined as 0.038 µM in experiment [1] and 0.12 µM in experiment [2].

As for `CCCc1ccc(S(=O)(=O)NC(C)(C)C(=O)NC2C3CC4CC2CC(C(N)=O)(C4)C3)cc1` (stereo not shown) [compound 99, N-4-(2-(4-propylphenylsulfonamido)-2-methylpropanamido)adamantane-1-carboxyamide], the IC50 in experiment [1] came to 0.047 µM; in experiment [2] it was 0.124 µM.

For `COc1ccccc1S(=O)(=O)NC(C)(C)C(=O)NC1C2CC3CC1CC(C(N)=O)(C3)C2` (stereo not shown) [compound 226, 4-[2-(2-methoxy-benzenesulfonylamino)-2-methyl-propionylamino]-adamantane-1-carboxylic acid amide], the half-maximal inhibitory concentration (IC50) was 0.062 µM in experiment [1] and 0.038 µM in experiment [2].

Regarding `Cc1ccccc1S(=O)(=O)N(C)C(C)(C)C(=O)NC1C2CC3CC1CC(O)(C3)C2` (stereo not shown) [compound 207, N-(5-hydroxyadamantane-2-yl)-2-(2-methyl-N-methylphenylsulfonamido)-2-methylpropanamide], the IC50 was determined as 0.006 µM in experiment [1] and 0.107 µM in experiment [2].

Take `Cc1cc(C)cc(S(=O)(=O)NC(C)(C)C(=O)NC2C3CC4CC(C3)CC2C4)c1` (stereo not shown) [compound 59, N-(adamantane-2-yl)-2-methyl-2-(3,5-dimethylphenylsulfonamido)propanamide]: the IC50 in experiment [1] was found to be 0.331 µM; in experiment [2], 1.21 µM.

For the molecule `CN(C(C)(C)C(=O)NC1C2CC3CC1CC(O)(C3)C2)S(=O)(=O)c1ccccc1N` (stereo not shown) [compound 225], the IC50 came out at 0.011 µM in experiment [1] and 0.083 µM in experiment [2].

Regarding `CCc1ccc(S(=O)(=O)NC(C)(C)C(=O)NC2C3CC4CC(C3)CC2C4)cc1` (stereo not shown) [compound 53, N-(adamantane-2-yl)-2-methyl-2-(4-ethylphenylsulfonamido)propanamide], the results for the IC50 in experiment [1] and in experiment [2] were 0.21 µM and 0.673 µM, respectively.

In the case of `CC(=O)c1ccc(S(=O)(=O)NC(C)(C)C(=O)NC2C3CC4CC(C3)CC2C4)cc1` (stereo not shown) [compound 38, N-(adamantane-2-yl)-2-methyl-2-(4-acetylphenylsulfonamido)propanamide], the IC50 turned out to be 0.829 µM in experiment [1] and 0.847 µM in experiment [2].

On to `NC(=O)C12CC3CC(C1)C(NC(=O)C1(NS(=O)(=O)c4cc(F)ccc4F)CCC1)C(C3)C2` (stereo not shown) [compound 163, N-4-(1-(2,5-difluorophenylsulfonamido)cyclobutanecarboxyamido)adamantane-1-carboxyamide], for which the IC50 came to 0.373 µM in experiment [1] and 0.443 µM in experiment [2].

In the case of `O=C(NC1C2CC3CC(C2)CC1C3)C1(NS(=O)(=O)c2ccc([N+](=O)[O-])cc2)CCC1` (stereo not shown) [compound 143, N-(adamantane-2-yl)-1-(4-nitrophenylsulfonamido)cyclobutanecarboxyamide], the concentration for half-maximal inhibition (IC50) in experiment [1] and in experiment [2] was > 2.5 µM throughout.

Turning to `Cc1ccc(S(=O)(=O)NC(C)(C)C(=O)NC2C3CC4CC2CC(C(N)=O)(C4)C3)cc1Cl` (stereo not shown) [compound 103, N-4-(2-(3-chloro-4-methylphenylsulfonamido)-2-methylpropanamido)adamantane-1-carboxyamide], the IC50 turned out to be 0.026 µM in experiment [1] and 0.037 µM in experiment [2].

`NC(=O)C12CC3CC(C1)C(NC(=O)C1(NS(=O)(=O)c4cccc(Cl)c4Cl)CCCC1)C(C3)C2` (stereo not shown) [compound 176, N-4-(1-(2,3-dichlorophenylsulfonamido)cyclopentanecarboxyamido)adamantane-1-carboxyamide]: the IC50 in experiment [1] is 0.009 µM; in experiment [2], 0.007 µM.

Consider `CCN(CC)C(=O)C12CC3CC(C1)C(NC(=O)C(C)(C)NS(=O)(=O)c1ccccc1Cl)C(C3)C2` (stereo not shown) [compound 227, 4-[2-(2-chloro-benzenesulfonylamino)-2-methyl-propionylamino]-adamantane-1-carboxylic acid diethylamide], for which the IC50 in experiment [1] and in experiment [2] was > 2.5 µM throughout.

For the molecule `CC(C)(NS(=O)(=O)Cc1ccccc1Cl)C(=O)NC1C2CC3CC(C2)CC1C3` (stereo not shown) [compound 34, N-(adamantane-2-yl)-2-methyl-2-((2-chlorophenyl)methylsulfonamido)propanamide], the IC50 stood at 0.048 µM in experiment [1] and 0.7 µM in experiment [2].

As to `CCN(C(C)(C)C(=O)NC1C2CC3CC1CC(C(N)=O)(C3)C2)S(=O)(=O)c1ccccc1F` (stereo not shown) [compound 211, N-4-(2-(2-fluoro-N-ethylphenylsulfonamido)-2-methylpropanamido)adamantane-1-carboxyamide], the figures for the IC50 in experiment [1] and in experiment [2] were 0.006 µM and 0.079 µM, respectively.

Regarding `CC(C)(NS(=O)(=O)c1ccccc1C(F)(F)F)C(=O)NC1C2CC3CC(C2)CC1C3` (stereo not shown) [compound 13, N-(adamantane-2-yl)-2-methyl-2-(2-trifluoromethylphenylsulfonamido)propanamide], the IC50 worked out at 0.032 µM in experiment [1] and 0.267 µM in experiment [2].

`CC(C)(NS(=O)(=O)c1ccc(Br)cc1)C(=O)NC1C2CC3CC(C2)CC1C3` (stereo not shown) [compound 65, N-(adamantane-2-yl)-2-methyl-2-(4-bromophenylsulfonamido)propanamide]: the IC50 in experiment [1] was determined as 0.996 µM; in experiment [2], 1.65 µM.

For the molecule `NC(=O)C12CC3CC(C1)C(NC(=O)C1(NS(=O)(=O)c4ccccc4N)CCCCC1)C(C3)C2` (stereo not shown) [compound 220, N-4-(1-(2-aminophenylsulfonamido)cyclohexanecarboxyamido)adamantane-1-carboxyamide], the results for the half-maximal inhibitory concentration (IC50) in experiment [1] and in experiment [2] were 0.032 µM and 0.266 µM, respectively.

Regarding `Cc1ccccc1S(=O)(=O)NC(C)(C)C(=O)NC1C2CC3CC(C2)CC1C3` (stereo not shown) [compound 15, N-(adamantane-2-yl)-2-methyl-2-(2-methylphenylsulfonamido)propanamide], the IC50 in experiment [1] amounted to 0.036 µM; in experiment [2], 0.313 µM.

Regarding `CC(C)(NS(=O)(=O)c1ccc(C(F)(F)F)cc1)C(=O)NC1C2CC3CC(C2)CC1C3` (stereo not shown) [compound 37, N-(adamantane-2-yl)-2-methyl-2-(4-trifluoromethylphenylsulfonamido)propanamide], the IC50 in experiment [1] and in experiment [2] was > 2.5 µM in each case.

As to `CC(C)(NS(=O)(=O)c1cccc2cccnc12)C(=O)NC1C2CC3CC1CC(O)(C3)C2` (stereo not shown) [compound 75, N-(5-hydroxyadamantane-2-yl)-2-methyl-2-(8-quinolinesulfonamido)propanamide], the values for the IC50 in experiment [1] and in experiment [2] were 0.006 µM and 0.005 µM, respectively.

Turning to `CC(C)(NS(=O)(=O)c1ccccc1F)C(=O)NC1C2CC3CC1CC(O)(C3)C2` (stereo not shown) [compound 69, N-(5-hydroxyadamantane-2-yl)-2-methyl-2-(2-fluorophenylsulfonamido)propanamide], the IC50 in experiment [1] is 0.118 µM; in experiment [2], 0.258 µM.

Regarding `CC(C)(NS(=O)(=O)c1cccc(Cl)c1)C(=O)NC1C2CC3CC(C2)CC1C3` (stereo not shown) [compound 10, N-(adamantane-2-yl)-2-methyl-2-(3-chlorophenylsulfonamido)propanamide], the results for the IC50 in experiment [1] and in experiment [2] were 0.212 µM and 0.735 µM, respectively.

On to `CCN(C(C)(C)C(=O)NC1C2CC3CC1CC(C(N)=O)(C3)C2)S(=O)(=O)c1ccccc1[N+](=O)[O-]` (stereo not shown) [compound 216], for which the IC50 in experiment [1] is 0.009 µM; in experiment [2] it was 0.974 µM.

Consider `CC(C)(NS(=O)(=O)c1cc(C(F)(F)F)ccc1C(F)(F)F)C(=O)NC1C2CC3CC1CC(C(N)=O)(C3)C2` (stereo not shown) [compound 109, N-4-(2-(2,5-bistrifluoromethylphenylsulfonamido)-2-methylpropanamido)adamantane-1-carboxyamide], for which the IC50 in experiment [1] was 0.045 µM; in experiment [2], 1.24 µM.

Turning to `CC(C)(NS(=O)(=O)Cc1ccc(C(F)(F)F)cc1)C(=O)NC1C2CC3CC(C2)CC1C3` (stereo not shown) [compound 36, N-(adamantane-2-yl)-2-methyl-2-((4-trifluoromethylphenyl)methylsulfonamido)propanamide], the IC50 in experiment [1] is 0.04 µM; in experiment [2] it was > 2.5 µM.

For `CC(C)(NS(=O)(=O)c1ccccc1Br)C(=O)NC1C2CC3CC1CC(C(=O)NC1CC1)(C3)C2` (stereo not shown) [compound 229, 4-[2-(2-bromo-benzenesulfonylamino)-2-methyl-propionylamino]-adamantane-1-carboxylic acid cyclopropylamide], the IC50 in experiment [1] and in experiment [2] was > 2.5 µM throughout.

As for `COc1ccc(S(=O)(=O)NC(C)(C)C(=O)NC2C3CC4CC2CC(C(N)=O)(C4)C3)cc1[N+](=O)[O-]` (stereo not shown) [compound 111, N-4-(2-(3-nitro-4-methoxyphenylsulfonamido)-2-methylpropanamido)adamantane-1-carboxyamide], the IC50 in experiment [1] came out at 1.3 µM; in experiment [2] it was 2.46 µM.

As to `CC(C)NC(=O)C12CC3CC(C1)C(NC(=O)C(C)(C)NS(=O)(=O)c1ccccc1Cl)C(C3)C2` (stereo not shown) [compound 235, 4-[2-(2-chloro-benzenesulfonylamino)-2-methyl-propionylamino]-adamantane-1-carboxylic acid isopropylamide], the IC50 in experiment [1] and in experiment [2] was > 2.5 µM in each case.

For the molecule `CC(C)(NS(=O)(=O)c1ccc(Cl)cc1Cl)C(=O)NC1C2CC3CC(C2)CC1C3` (stereo not shown) [compound 46, N-(adamantane-2-yl)-2-methyl-2-(2,4-dichlorophenylsulfonamido)propanamide], the values for the half-inhibitory concentration (IC50) in experiment [1] and in experiment [2] were 0.105 µM and 0.621 µM, respectively.

For `O=C(NC1C2CC3CC(C2)CC1C3)C1(NS(=O)(=O)c2ccccc2[N+](=O)[O-])CCC1` (stereo not shown) [compound 137, N-(adamantane-2-yl)-1-(2-nitrophenylsulfonamido)cyclobutanecarboxyamide], the IC50 came out at 0.255 µM in experiment [1] and 1.1 µM in experiment [2].

For the molecule `NC(=O)C12CC3CC(C1)C(NC(=O)C1(NS(=O)(=O)c4ccccc4Cl)CC1)C(C3)C2` (stereo not shown) [compound 132, N-4-(1-(2-chlorophenylsulfonamido)cyclopropanecarboxyamido)adamantane-1-carboxyamide], the IC50 in experiment [1] amounted to 0.037 µM; in experiment [2] it was 0.148 µM.
